Source: US20240327393A1 (SIRONAX LTD., priority 2021, published 2024)

Test system: HT-1080 (ATCC, CCL-121) cells
Experiment: HT-1080 cell viability assay with ferroptosis inducer RSL3 (Cell Titer-Glo)
Format: cell-based
Conditions: Homo sapiens; HT-1080 cells treated with RSL3; 3-fold, 10-point dilution, 1.1 μM highest concentration; Table 2; read-out: EC50 (nM), ferroptosis inhibitory activity
In short: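 EC50 was derived by sigmoidal dose-response regression of CellTiter-Glo luminescence viability, expressed relative to untreated wells. Compounds were tested in a ten-point, threefold dilution series (highest 1.1 μM) in the presence of the ferroptosis inducer RSL3. HT-1080 cells had been seeded at 6000 per well and grown overnight first.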

SMILES | EC50 [nM]
CC1CCN(c2ccc(Nc3ccc4c(c3)ncn4C)cc2)CC1 [Compound 285, 1-methyl-N-(4-(4-methylpiperidin-1-yl)phenyl)-1H-benzo[d]imidazol-5-amine] | 0.1 to 100
CC1CCN(c2ccc(Nc3ccc4oc(=O)n(C)c4c3)cc2)CC1 [Compound 286, 3-methyl-5-((4-(4-methylpiperidin-1-yl)phenyl)amino)benzo[d]oxazol-2(3H)-one] | 0.1 to 100
CC1CCN(c2ccc(Nc3ccc4c(c3)n(C)c(=O)n4C)cc2)CC1 [Compound 287, 1,3-dimethyl-5-((4-(4-methylpiperidin-1-yl)phenyl)amino)-1,3-dihydro-2H-benzo[d]imidazol-2-one] | 0.1 to 100
CN1Cc2cc(Nc3ccc(N4CCC(C(F)(F)F)CC4)cc3)ccc2C1=N [Compound 291, 1-imino-2-methyl-N-(4-(4-(trifluoromethyl)piperidin-1-yl)phenyl) isoindolin-5-amine] | 0.1 to 100
Cn1c(=O)n(C)c2cc(Nc3ccc(C(=O)N4CCCC4)cc3)ccc21 [Compound 292, 1,3-dimethyl-5-((4-(pyrrolidine-1-carbonyl)phenyl)amino)-1,3-dihydro-2H-benzo[d]imidazol-2-one] | 1000 to 10000
CN1C(=O)C(C)(C)c2cc(Nc3ccc(N4CCC(C(F)(F)F)CC4)cc3)ccc21 [Compound 293, 1,3,3-trimethyl-5-((4-(4-(trifluoromethyl)piperidin-1-yl)phenyl)amino)indolin-2-one] | 0.1 to 100
CC1CCN(c2ccc(Nc3ccc4c(c3)CN(C)C4=N)cc2)CC1 [Compound 294, 1-imino-2-methyl-N-(4-(4-methylpiperidin-1-yl)phenyl)isoindolin-5-amine] | 0.1 to 100
Cn1c(=O)n(C)c2cc(Nc3ccc(CN4CCCC4)cc3)ccc21 [Compound 295, 1,3-dimethyl-5-((4-(pyrrolidin-1-ylmethyl)phenyl)amino)-1,3-dihydro-2H-benzo[d]imidazol-2-one] | 1000 to 10000
Cn1c(=O)n(C)c2cc(Nc3ccc(N4CCC(F)(F)CC4)cc3)ccc21 [Compound 297, 5-((4-(4,4-difluoropiperidin-1-yl)phenyl)amino)-1,3-dimethyl-1,3-dihydro-2H-benzo[d]imidazol-2-one] | 0.1 to 100
CC1CCN(c2ccc(Nc3ccc4c(c3)n(C)c(=O)n4C)cc2Cl)CC1 [Compound 298, 5-((3-chloro-4-(4-methylpiperidin-1-yl)phenyl)amino)-1,3-dimethyl-1,3-dihydro-2H-benzo[d]imidazol-2-one] | 0.1 to 100
Cn1c(=O)n(C)c2cc(Nc3ccc(N4CCC(F)CC4)cc3)ccc21 [Compound 299, 5-((4-(4-fluoropiperidin-1-yl)phenyl)amino)-1,3-dimethyl-1,3-dihydro-2H-benzo[d]imidazol-2-one] | 0.1 to 100
Cn1nnc2cc(Nc3ccc(N4CCC(C(F)(F)F)CC4)cc3)ccc21 [Compound 300, 1-methyl-N-(4-(4-(trifluoromethyl)piperidin-1-yl)phenyl)-1H-benzo[d][1,2,3]triazol-5-amine] | 0.1 to 100
COc1c(Nc2ccc(N3CCC(C(F)(F)F)CC3)cc2)ccc2c1CN(C)C2=O [Compound 301, 4-methoxy-2-methyl-5-((4-(4-(trifluoromethyl)piperidin-1-yl)phenyl)amino)isoindolin-1-one] | 0.1 to 100
Cn1c(=N)n(C)c2cc(Nc3ccc(N4CCC(C(F)(F)F)CC4)cc3)ccc21 [Compound 302, 2-imino-1,3-dimethyl-N-(4-(4-(trifluoromethyl)piperidin-1-yl)phenyl)-2,3-dihydro-1H-benzo[d]imidazol-5-amine] | 0.1 to 100
CN1Cc2cc(Nc3ccc(N4CCCCC4)c(N(C)C)c3)ccc2C1=O [Compound 303, 5-((3-(dimethylamino)-4-(piperidin-1-yl)phenyl)amino)-2-methylisoindolin-1-one] | 0.1 to 100
CN(C)c1cc(Nc2ccc3c(=O)n(C)[nH]c3c2)ccc1N1CCCCC1 [Compound 304, 6-((3-(dimethylamino)-4-(piperidin-1-yl)phenyl)amino)-2-methyl-1,2-dihydro-3H-indazol-3-one] | 0.1 to 100
CC1CCN(c2ccc(Nc3ccc4c(c3)C(C)(C)CN4C)cc2)CC1 [Compound 311, 1,3,3-trimethyl-N-(4-(4-methylpiperidin-1-yl)phenyl)indolin-5-amine] | 0.1 to 100
C/N=C1\c2ccc(Nc3ccc(N4CCC(C(F)(F)F)CC4)cc3)cc2CN1C [Compound 313, 2-methyl-1-(methylimino)-N-(4-(4-(trifluoromethyl)piperidin-1-yl)phenyl)isoindolin-5-amine] | 0.1 to 100
Cn1nnc2ccc(Nc3ccc(N4CCC(C(F)(F)F)CC4)cc3)cc21 [Compound 314, 1-methyl-N-(4-(4-(trifluoromethyl)piperidin-1-yl)phenyl)-1H-benzo[d][1,2,3]triazol-6-amine] | 0.1 to 100
Cn1c(=O)oc2cc(Nc3ccc(N4C[C@H]5CC[C@@H]4C5)cc3)ccc21 [Compound 315, 6-((4-((1R,4S)-2-azabicyclo[2.2.1]heptan-2-yl)phenyl)amino)-3-methylbenzo[d] oxazol-2(3H)-one] | 0.1 to 100
Cn1c(=O)oc2cc(Nc3ccc(N4CC5(CCCC5)C4)cc3)ccc21 [Compound 316, 6-((4-(2-azaspiro[3.4]octan-2-yl)phenyl)amino)-3-methy/benzo[d]oxazol-2′3H-one] | 0.1 to 100
CC1CN(c2ccc(Nc3ccc4c(c3)oc(=O)n4C)cc2)CC(C)O1 (stereo not shown) [Compound 317, 6-((4-(2,6-dimethylmorpholino)phenyl)amino)-3-methylbenzo[d]oxazol-2(3H)-one] | 0.1 to 100
CC1CCN(c2ccc(Nc3ccc4nnn(C)c4c3)cc2)CC1 [Compound 321, 1-methyl-N-(4-(4-methylpiperidin-1-yl)phenyl)-1H-benzo[d][1,2,3]triazol-6-amine] | 0.1 to 100
Cc1nc2ccc(Nc3ccc(N4CCC(C(F)(F)F)CC4)cc3)cc2o1 [Compound 323, 2-methyl-N-(4-(4-(trifluoromethyl)piperidin-1-yl)phenyl)benzo[d]oxazol-6-amine] | 0.1 to 100
Cn1c(=O)oc2cc(Nc3ccc(N4CC(C)(C)C4)cc3)ccc21 [Compound 324, 6-((4-(3,3-dimethylazetidin-1-yl)phenyl)amino)-3-methylbenzo[d]oxazol-2(3H)-one] | 0.1 to 100
CC1CCC(C)N1c1ccc(Nc2ccc3c(c2)oc(=O)n3C)cc1 (stereo not shown) [Compound 325, 6-((4-(2,5-dimethylpyrrolidin-1-yl)phenyl)amino)-3-methylbenzo[d]oxazol-2(3H)-one] | 0.1 to 100

More lines, now with the values ahead:

EC50 [nM] | SMILES
0.1 to 100 | CN1CCOc2cc(Nc3ccc4c(c3)n(C)c(=O)n4C)ccc21 [Compound 288, 1,3-dimethyl-5-((4-methyl-3,4-dihydro-2H-benzo[b][1,4]oxazin-7-yl)amino)-1,3-dihydro-2H-benzo[d]imidazol-2-one]
0.1 to 100 | CN1CCc2cc(Nc3ccc4c(c3)n(C)c(=O)n4C)ccc21 [Compound 289, 1,3-dimethyl-5-((1-methylindolin-5-yl)amino)-1,3-dihydro-2H-benzo[d]imidazol-2-one]
0.1 to 100 | C#Cc1ccc(Nc2ccc3c(c2)n(C)c(=O)n3C)cc1 [Compound 290, 5-((4-ethynylphenyl)amino)-1,3-dimethyl-1,3-dihydro-2H-benzo[d]imidazol-2-one]
0.1 to 100 | CCCCCOc1ccc(Nc2ccc3c(c2)n(C)c(=O)n3C)cc1OC [Compound 296, 5-((3-methoxy-4-(pentyloxy)phenyl)amino)-1,3-dimethyl-1,3-dihydro-2H-benzo[d]imidazol-2-one]
100 to 1000 | Cn1c(=O)n(C)c2cc(Nc3ccc(-n4ccnc4)cc3)ccc21 [Compound 305, 5-((4-(1H-imidazol-1-yl)phenyl)amino)-1,3-dimethyl-1,3-dihydro-2H-benzo[d]imidazol-2-one]
100 to 1000 | CCOC(=O)c1ccc(Nc2ccc3c(c2)n(C)c(=O)n3C)cc1 [Compound 306, ethyl 4-((1,3-dimethyl-2-oxo-2,3-dihydro-1H-benzo[d]imidazol-5-yl)amino)benzoate]
100 to 1000 | Cn1c(=O)n(C)c2cc(Nc3ccc4c(c3)OCCO4)ccc21 [Compound 307, 5-((2,3-dihydrobenzo[b][1,4]dioxin-6-yl)amino)-1,3-dimethyl-1,3-dihydro-2H-benzo[d]imidazol-2-one]
0.1 to 100 | CN(C)c1cccc(Nc2ccc3c(c2)n(C)c(=O)n3C)c1 [Compound 308, 5-((3-(dimethylamino)phenyl)amino)-1,3-dimethyl-1,3-dihydro-2H-benzo[d]imidazol-2-one]
0.1 to 100 | CCOc1ccc(Nc2ccc3c(c2)n(C)c(=O)n3C)cc1 [Compound 309, 5-((4-ethoxyphenyl)amino)-1,3-dimethyl-1,3-dihydro-2H-benzo[d]imidazol-2-one]
0.1 to 100 | Cn1c(=O)n(C)c2cc(Nc3ccc4nccn4c3)ccc21 [Compound 310, 5-(imidazo[1,2-a]pyridin-6-ylamino)-1,3-dimethyl-1,3-dihydro-2H-benzo[d]imidazol-2-one]
0.1 to 100 | COc1cc(Nc2ccc3c(c2)n(C)c(=O)n3C)cc(OC)c1OC [Compound 312, 1,3-dimethyl-5-((3,4,5-trimethoxyphenyl)amino)-1,3-dihydro-2H-benzo[d]imidazol-2-one]
0.1 to 100 | COCCOc1ccc(Nc2ccc3c(c2)n(C)c(=O)n3C)cc1 [Compound 318, 5-((4-(2-methoxyethoxy)phenyl)amino)-1,3-dimethyl-1,3-dihydro-2H-benzo[d] imidazol-2-one]
0.1 to 100 | COc1ncc(Nc2ccc3c(c2)n(C)c(=O)n3C)cn1 [Compound 319, 5-((2-methoxypyrimidin-5-yl)amino)-1,3-dimethyl-1,3-dihydro-2H-benzo[d] imidazole-2-one]
0.1 to 100 | COc1ccc(Nc2ccc3c(c2)n(C)c(=O)n3C)cn1 [Compound 320, 5-((6-methoxypyridin-3-yl)amino)-1,3-dimethyl-1,3-dihydro-2H-benzo[d] imidazol-2-one]
